Measured values as given in PubChem BioAssay AID330 (DTP/NCI, 2004).
Several values for one entry are separate records, joined by “and”; a condition that tells them apart may be missing. Equal values may be shown once. Toxic doses and inconclusive results are not listed. The calls were made as follows: active = survival T/C of 150% or more; inactive = T/C below 125% in these data.

System: P388 leukemia ip, CD2F1 mice, survival T/C
Assay: NCI In Vivo Anticancer Drug Screen. Data for tumor model P388 Leukemia (intraperitoneal) in CD2F1 (CDF1) mice
Conditions: endpoint: median survival time, higher = longer survival
How it was run: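 Mice carrying the transplanted tumor received test compound or vehicle. Survival was recorded in each group, and the value is the treated-group measurement divided by that of the vehicle-treated control group.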

[1] = dose: 50.0 mg/kg/injection, schedule: Q01DX005 (ip), vehicle: Klucel (hydroxypropylcellulose) (HPC)
[2] = dose: 100.0 mg/kg/injection, schedule: Q01DX005 (ip), vehicle: Klucel (hydroxypropylcellulose) (HPC)
[3] = dose: 200.0 mg/kg/injection, schedule: Q01DX005 (ip), vehicle: Klucel (hydroxypropylcellulose) (HPC)
[4] = dose: 60.0 mg/kg/injection, schedule: Q01DX005 (ip), vehicle: Klucel (hydroxypropylcellulose) (HPC)
[5] = dose: 60.0 mg/kg/injection, schedule: Q01DX005 (ip), vehicle: saline with Tween-80
[6] = dose: 120.0 mg/kg/injection, schedule: Q01DX005 (ip), vehicle: saline with Tween-80
[7] = dose: 240.0 mg/kg/injection, schedule: Q01DX005 (ip), vehicle: saline with Tween-80
[8] = dose: 50.0 mg/kg/injection, schedule: Q01DX009 (ip), vehicle: saline
[9] = dose: 100.0 mg/kg/injection, schedule: Q01DX009 (ip), vehicle: saline
[10] = dose: 200.0 mg/kg/injection, schedule: Q01DX009 (ip), vehicle: saline
[11] = dose: 50.0 mg/kg/injection, schedule: Q01DX009 (ip), vehicle: Klucel (hydroxypropylcellulose) (HPC)
[12] = dose: 100.0 mg/kg/injection, schedule: Q01DX009 (ip), vehicle: Klucel (hydroxypropylcellulose) (HPC)
[13] = dose: 200.0 mg/kg/injection, schedule: Q01DX009 (ip), vehicle: Klucel (hydroxypropylcellulose) (HPC)
[14] = dose: 25.0 mg/kg/injection, schedule: Q01DX009 (ip), vehicle: saline

Measured: T/C

Oc1ccc(/C=C/c2cc(O)cc3c2C(c2cc(O)cc(O)c2)C(c2ccc(O)c(O)c2)O3)cc1 (stereo not given)
inactive: dose: 7.5 mg/kg/injection, schedule: Q01DX001 (ip), vehicle: Klucel + Tween-80 94 % of control | dose: 15.0 mg/kg/injection, schedule: Q01DX001 (ip), vehicle: Klucel + Tween-80 94 % of control | dose: 30.0 mg/kg/injection, schedule: Q01DX001 (ip), vehicle: Klucel + Tween-80 103 % of control

Cc1ccc(S(=O)(=O)N2CCCCN(S(=O)(=O)c3ccc(C)cc3)COC2)cc1
inactive: [1] 101 % of control | [2] 101 % of control | [3] 102 % of control

O=C1C(N=Nc2ccc(Br)cc2)Sc2nc3ccccc3n21 (stereo not given)
inactive: [4] 89 % of control | dose: 120.0 mg/kg/injection, schedule: Q01DX005 (ip), vehicle: Klucel (hydroxypropylcellulose) (HPC) 89 % of control

Cc1cc(C2(c3cc(C)c(O)c(Br)c3)OS(=O)(=O)c3ccccc32)cc(Br)c1O
inactive: [5] 99 % of control | [6] 102 % of control | [7] 90 % of control

CCOC(=O)CC/C(=C/c1cccc(OC)c1)[N+](=O)[O-]
inactive: dose: 50.0 mg/kg/injection, schedule: Q01DX001 (ip), vehicle: Klucel (hydroxypropylcellulose) (HPC) 105 % of control | dose: 100.0 mg/kg/injection, schedule: Q01DX001 (ip), vehicle: Klucel (hydroxypropylcellulose) (HPC) 107 % of control | dose: 200.0 mg/kg/injection, schedule: Q01DX001 (ip), vehicle: Klucel (hydroxypropylcellulose) (HPC) 107 % of control

O=C(c1ccccc1)N1CCCCC1
inactive: [8] 95 % of control | [9] 100 % of control | dose: 100.0 mg/kg/injection, schedule: Q04DX003 (ip), vehicle: saline 110 % of control | [10] 100 % of control | dose: 200.0 mg/kg/injection, schedule: Q04DX003 (ip), vehicle: saline 110 % of control

CN(CC(=O)N1CCOCC1)Cc1c(Cl)cccc1NC(=O)c1ccccc1
inactive: [8] 100 % of control | [9] 103 % of control | [10] 105 % of control

COC(=O)c1ccc(SCCC(=O)CNc2nc(N)nc(N)c2[N+](=O)[O-])cc1
inactive: [11] 96 % of control | [12] 93 % of control | [13] 96 % of control

O=C1C=CC(=O)C(N(CCO)CCO)=C1
inactive: dose: 12.5 mg/kg/injection, schedule: Q01DX009 (ip), vehicle: saline 99 % of control | dose: 12.5 mg/kg/injection, schedule: Q01DX009 (ip), vehicle: suspension in saline 100 % of control | [14] 94 % of control | dose: 25.0 mg/kg/injection, schedule: Q01DX009 (ip), vehicle: suspension in saline 103 % of control | [8] 95 % of control | dose: 50.0 mg/kg/injection, schedule: Q01DX009 (ip), vehicle: suspension in saline 113 % of control | [9] 95 % of control | dose: 100.0 mg/kg/injection, schedule: Q01DX009 (ip), vehicle: suspension in saline 109 % of control and 111 % of control

C/C(=N\Nc1ccc2ccccc2n1)c1ccccn1
inactive: dose: 12.5 mg/kg/injection, schedule: Q01DX005 (ip), vehicle: Klucel (hydroxypropylcellulose) (HPC) 107 % of control | dose: 25.0 mg/kg/injection, schedule: Q01DX005 (ip), vehicle: Klucel (hydroxypropylcellulose) (HPC) 106 % of control | [1] 114 % of control and 116 % of control

CN(Cc1ccccc1)C(=O)Nc1c(Cl)cccc1Cl
inactive: [5] 103 % of control | [6] 99 % of control | [7] 95 % of control

O=c1ccc2nccc3c4cc(O)ccc4n1c23
inactive: dose: 1.75 mg/kg/injection, schedule: Q01DX009 (ip), vehicle: saline with Tween-80 98 % of control | dose: 7.0 mg/kg/injection, schedule: Q01DX009 (ip), vehicle: saline with Tween-80 109 % of control

Nc1c(S(=O)(=O)O)cc(Nc2cccc(CO)c2)c2c1C(=O)c1ccccc1C2=O
inactive: dose: 12.5 mg/kg/injection, schedule: Q01DX001 (ip), vehicle: saline 99 % of control | dose: 25.0 mg/kg/injection, schedule: Q01DX001 (ip), vehicle: saline 99 % of control | dose: 50.0 mg/kg/injection, schedule: Q01DX001 (ip), vehicle: saline 98 % of control | dose: 100.0 mg/kg/injection, schedule: Q01DX001 (ip), vehicle: saline 106 % of control

CN(C)C1=NC(N(C)C)=C2C=CC=C12
inactive: dose: 15.0 mg/kg/injection, schedule: Q01DX005 (ip), vehicle: Klucel (hydroxypropylcellulose) (HPC) 103 % of control | dose: 30.0 mg/kg/injection, schedule: Q01DX005 (ip), vehicle: Klucel (hydroxypropylcellulose) (HPC) 97 % of control | [4] 96 % of control

Cc1[nH]c2ccc(N(C)C)cc2c(=O)c1C
inactive: dose: 12.5 mg/kg/injection, schedule: Q01DX009 (ip), vehicle: Klucel (hydroxypropylcellulose) (HPC) 96 % of control | dose: 25.0 mg/kg/injection, schedule: Q01DX009 (ip), vehicle: Klucel (hydroxypropylcellulose) (HPC) 104 % of control and 107 % of control | [11] 100 % of control and 103 % of control and 123 % of control | [12] 102 % of control and 103 % of control and 107 % of control | [13] 112 % of control

S=C(NNC(=S)Nc1ccccc1)Nc1ccccc1
inactive: [14] 102 % of control | [11] 97 % of control | [8] 109 % of control | [12] 93 % of control | [9] 100 % of control | [13] 101 % of control | dose: 400.0 mg/kg/injection, schedule: Q01DX009 (ip), vehicle: Klucel (hydroxypropylcellulose) (HPC) 104 % of control

CCCCCCCCSP(SCCCCCCCC)SCCCCCCCC
inactive: dose: 50.0 mg/kg/injection, schedule: Q01DX009 (ip), vehicle: saline with Tween-80 113 % of control | dose: 100.0 mg/kg/injection, schedule: Q01DX009 (ip), vehicle: saline with Tween-80 106 % of control | [9] 96 % of control | dose: 200.0 mg/kg/injection, schedule: Q01DX009 (ip), vehicle: saline with Tween-80 103 % of control | [10] 102 % of control and 91 % of control

Cc1nnsc1C(=O)NCc1c(F)cccc1Cl
inactive: [1] 97 % of control | [2] 99 % of control | [3] 98 % of control

NC(N)=NCC(NS(=O)(=O)c1ccccc1)C(=O)O (stereo not given)
inactive: [11] 111 % of control | [12] 111 % of control | [13] 104 % of control

C=C1C=CC1=O
inactive: dose: 0.63 mg/kg/injection, schedule: Q01DX009 (ip), vehicle: olive oil, sesame oil, peanut oil 100 % of control | dose: 1.25 mg/kg/injection, schedule: Q01DX009 (ip), vehicle: olive oil, sesame oil, peanut oil 100 % of control and 91 % of control | dose: 2.5 mg/kg/injection, schedule: Q01DX009 (ip), vehicle: olive oil, sesame oil, peanut oil 100 % of control and 93 % of control | dose: 5.0 mg/kg/injection, schedule: Q01DX009 (ip), vehicle: olive oil, sesame oil, peanut oil 100 % of control and 104 % of control | dose: 10.0 mg/kg/injection, schedule: Q01DX009 (ip), vehicle: olive oil, sesame oil, peanut oil 99 % of control and 103 % of control

CC(C)(C)CC(C)(C)C/C=C/C[N+](C)(C)C/C=C/CC(C)(C)CC(C)(C)C
inactive: dose: 12.5 mg/kg/injection, schedule: Q04DX002 (ip), vehicle: saline 102 % of control | dose: 25.0 mg/kg/injection, schedule: Q04DX002 (ip), vehicle: saline 95 % of control

CC(=O)CC(=O)c1ccc(F)cc1.CC(=O)CC(=O)c1ccc(F)cc1.[Cu]
inactive: dose: 10.0 mg/kg/injection, schedule: Q01DX009 (ip), vehicle: saline with Tween-80 88 % of control | dose: 20.0 mg/kg/injection, schedule: Q01DX009 (ip), vehicle: saline with Tween-80 89 % of control

COCC1(C)CCCC2(C)C3=CC(=O)CCC3CCC12 (stereo not given)
inactive: dose: 100.0 mg/kg/injection, schedule: Q04DX003 (ip), vehicle: saline with Tween-80 100 % of control | dose: 200.0 mg/kg/injection, schedule: Q04DX003 (ip), vehicle: saline with Tween-80 108 % of control | dose: 400.0 mg/kg/injection, schedule: Q04DX003 (ip), vehicle: saline with Tween-80 95 % of control

Cc1ccc(NC(=S)SCc2ccc(Cl)c(Cl)c2)cc1Br
inactive: [8] 113 % of control | [9] 100 % of control | [10] 90 % of control | dose: 200.0 mg/kg/injection, schedule: Q01DX009 (ip), vehicle: suspension in saline 95 % of control

CS(=O)(=O)N1CCCN(S(C)(=O)=O)COC1
inactive: [5] 99 % of control | [6] 101 % of control | [7] 101 % of control
